Reference: US20230143612A1 (Arbutus Biopharma Corporation, priority 2020, published 2023)

Biological target: PD-L1 His protein / PD-1 Fc protein (Homo sapiens, UniProt Q9NZQ7)
Assay: HTRF Assay (PD-1/PD-L1 interaction)
Assay type: binding
Details: PD-L1 His 6 nM, PD-1 Fc 6 nM
Procedure, shortened: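 Compounds tested from 20 μM down to 0.001 μM (3-fold) against 6 nM PD-L1 His and 6 nM PD-1 Fc, 15 min room temperature incubation. Detection after 1 h at room temperature with Tb cryptate anti-6HIS and XL665 anti-human IgG reagents (mixture at 0.35 nM and 6.7 nM), HTRF signal.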

PD-L1 His protein / PD-1 Fc protein, sequence (Q9NZQ7 19-238 limits assumed): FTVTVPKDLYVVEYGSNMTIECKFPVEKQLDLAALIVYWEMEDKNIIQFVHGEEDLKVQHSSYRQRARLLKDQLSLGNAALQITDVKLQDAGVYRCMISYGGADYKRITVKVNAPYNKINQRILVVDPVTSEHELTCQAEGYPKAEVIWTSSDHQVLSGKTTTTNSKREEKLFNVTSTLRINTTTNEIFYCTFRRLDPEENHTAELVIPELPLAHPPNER

Compound | IC50 [nM]
COc1nc(-c2cccc(-c3cccc(-c4cc(C)n5c(=O)c(CN[C@H]6C[C@@](C)(O)C6)cnc5c4)c3Cl)c2Cl)ccc1CNC[C@@H]1CCC(=O)N1 [Example 254, 8-(2,2′-Dichloro-3′-(6-methoxy-5-(((((S)-5-oxopyrrolidin-2-yl)methyl)amino)methyl)pyridin-2-yl)-[1,1′-biphenyl]-3-yl)-3-((((1s,3s)-3-hydroxy-3-methylcyclobutyl)amino)methyl)-6-methyl-4H-pyrido[1,2-a]pyrimidin-4-one] | 61
COc1nc(-c2cccc(-c3cccc(-c4ccn5c(=O)c(CNC[C@@H]6C[C@H]6CO)cnc5c4)c3Cl)c2Cl)ccc1CNC[C@@H]1CCC(=O)N1 (racemic) [Example 245, 8-(2,2′-dichloro-3′-(6-methoxy-5-(((((S)-5-oxopyrrolidin-2-yl)-methyl)amino)-methyl)-pyridin-2-yl)-[1,1′-biphenyl]-3-yl)-3-(((((1R,2R)-2-(hydroxymethyl)-cyclopropyl)methyl)amino)-methyl)-4H-pyrido[1,2-a]pyrimidin-4-one] | 2.1
COc1nc(-c2cccc(-c3cccc(-c4ccn5c(=O)c(CN6CCCC[C@H]6C(=O)O)cnc5c4)c3Cl)c2Cl)ccc1CNC[C@@H]1CCC(=O)N1 [Example 129, (S)-1-((8-(2,2′-Dichloro-3′-(6-methoxy-5-(((((S)-5-oxopyrrolidin-2-yl)methyl)amino)methyl)pyridin-2-yl)-[1,1′-biphenyl]-3-yl)-4-oxo-4H-pyrido[1,2-a]pyrimidin-3-yl)methyl)piperidine-2-carboxylic acid] | 0.3
COc1nc(-c2cccc(-c3cccc(-c4cnc5c(CNC[C@@H]6CCC(=O)N6)c(OC)nn5c4)c3Cl)c2Cl)ccc1CNC[C@@H]1CCC(=O)N1 [Example 379, (S)-5-((((6-(2,2′-Dichloro-3′-(2-methoxy-3-(((((S)-5-oxopyrrolidin-2-yl)methyl)amino)methyl)pyrazolo[1,5-a]pyrimidin-6-yl)-[1,1′-biphenyl]-3-yl)-2-methoxypyridin-3-yl)methyl)amino)methyl)pyrrolidin-2-one] | 5.6
COc1nc(-c2cccc(-c3cccc(-c4ccc5nc(CNC[C@@H]6CCC(=O)N6)oc5c4)c3Cl)c2Cl)ccc1CNC[C@@H]1CCC(=O)N1 [Example 248, (S)-5-((((6-(2,2′-Dichloro-3′-(2-(((((S)-5-oxopyrrolidin-2-yl)methyl)amino)methyl)benzo[d]oxazol-6-yl)-[1,1′-biphenyl]-3-yl)-2-methoxypyridin-3-yl)methyl)amino)methyl)pyrrolidin-2-one] | 250
COc1nc(-c2cccc(-c3cccc(-c4cc(F)c(CNC[C@@H]5CCC(=O)N5)c(OC)n4)c3Cl)c2Cl)cc(F)c1CNC[C@@H]1CCC(=O)N1 [Example 236, (5S,5′S)-5,5′-(((((2,2′-dichloro-[1,1′-biphenyl]-3,3′-diyl)bis(4-fluoro-2-methoxypyridine-6,3-diyl))bis(methylene))bis(azanediyl))bis(methylene))bis(pyrrolidin-2-one)] | 1.2
COc1nc(-c2cccc(-c3cccc(-c4ccn5c(=O)c(CNCCC(=O)O)cnc5c4)c3Cl)c2Cl)ccc1CNC[C@@H]1CCC(=O)N1 [Example 182, (S)-3-(((8-(2,2′-Dichloro-3′-(6-methoxy-5-((((5-oxopyrrolidin-2-yl)methyl)amino)methyl)pyridin-2-yl)-[1,1′-biphenyl]-3-yl)-4-oxo-4H-pyrido[1,2-a]pyrimidin-3-yl)methyl)amino)propanoic acid] | 0.1
Cc1c(-c2ccn3c(=O)c(CNC[C@@H]4CCC(=O)N4)cnc3c2)cccc1-c1cccc(-c2ccc3c(c2)CC(NC(=O)[C@@H]2CCCN2)C3)c1Cl (mixture of isomers) [Example 46, (2S)—N-(5-(2-Chloro-2′-methyl-3′-(4-oxo-3-(((((S)-5-oxopyrrolidin-2-yl)methyl)amino)methyl)-4H-pyrido[1,2-a]pyrimidin-8-yl)-[1,1′-biphenyl]-3-yl)-2,3-dihydro-1H-inden-2-yl)pyrrolidine-2-carboxamide] | 520
COC(=O)CCCNCc1cnc2cc(-c3cccc(-c4cccc(-c5ccc(CNC[C@@H]6CCC(=O)N6)c(OC)n5)c4Cl)c3Cl)ccn2c1=O [Example 137, Methyl (S)-4-(((8-(2,2′-dichloro-3′-(6-methoxy-5-((((5-oxopyrrolidin-2-yl)methyl)amino)methyl)pyridin-2-yl)-[1,1′-biphenyl]-3-yl)-4-oxo-4H-pyrido[1,2-a]pyrimidin-3-yl)methyl)amino)butanoate] | 1.7
CNCCCOc1cc(C)c2nc(-c3cccc(-c4cccc(-c5cc(=O)n6cc(OCCCNC)cc(C)c6n5)c4Cl)c3Cl)cc(=O)n2c1 [Example 35, 2,2′-(2,2′-Dichloro-[1,1′-biphenyl]-3,3′-diyl)bis(9-methyl-7-(3-(methylamino)propoxy)-4H-pyrido[1,2-a]pyrimidin-4-one)] | 350
COc1c(CNC[C@@H]2CCC(=O)N2)ccc(-c2cccc(-c3cccc(-c4ccn5c(=O)c(CNC[C@@H]6CCC(=O)N6)cnc5c4)c3Cl)c2Cl)c1F [Example 105, 8-[2-Chloro-3-[2-chloro-3-[2-fluoro-3-methoxy-4-[[[(2S)-5-oxopyrrolidin-2-yl]methylamino]methyl]phenyl]phenyl]phenyl]-3-[[[(2S)-5-oxopyrrolidin-2-yl]methylamino]methyl]pyrido[1,2-a]pyrimidin-4-one] | 5.9
COc1nc(-c2cccc(-c3cccc(-c4ccn5c(=O)c(CNCC(C)(C)OC)cnc5c4)c3Cl)c2Cl)ccc1CNC[C@@H]1CCC(=O)N1 [Example 345, (S)-8-(2,2′-Dichloro-3′-(6-methoxy-5-((((5-oxopyrrolidin-2-yl)methyl)amino)methyl)pyridin-2-yl)-[1,1′-biphenyl]-3-yl)-3-(((2-methoxy-2-methylpropyl)amino)methyl)-4H-pyrido[1,2-a]pyrimidin-4-one] | 42
COc1nc(-c2cccc(-c3cccc(-c4ccc5c(CNC[C@@H]6CCCO6)cn(C)c5n4)c3Cl)c2Cl)ccc1CNC[C@@H]1CCC(=O)N1 [Example 444, (5S)-5-[[[6-[2-Chloro-3-[2-chloro-3-[1-methyl-3-[[[(2S)-tetrahydrofuran-2-yl]methylamino]methyl]pyrrolo[2,3-b]pyridin-6-yl]phenyl]phenyl]-2-methoxy-3-pyridyl]methylamino]methyl]pyrrolidin-2-one] | 920
Cc1c(COc2cc(OCc3cncc(C#N)c3)c(CNCCO)cc2Cl)cccc1-c1cccc(-n2ccc(CNCCO)cc2=O)c1C [Example 23, 5-((4-Chloro-2-(((2-hydroxyethyl)amino)methyl)-5-((3′-(4-(((2-hydroxyethyl)amino)methyl)-2-oxopyridin-1(2H)-yl)-2,2′-dimethyl-[1,1′-biphenyl]-3-yl)methoxy)phenoxy)methyl)nicotinonitrile] | 33
COc1nc(-c2cccc(-c3cccc(-c4cc(OC)c5c(CNC[C@@H]6CCC(=O)N6)cnn5c4)c3Cl)c2Cl)ccc1CNC[C@@H]1CCC(=O)N1 [Example 397] | 290
COc1nc(-c2cccc(-c3cccc(-c4ccn5c(=O)c(CN(C)CC(=O)O)cnc5c4)c3Cl)c2Cl)ccc1CNC[C@@H]1CCC(=O)N1 [Example 187, (S)—N-((8-(2,2′-Dichloro-3′-(6-methoxy-5-((((5-oxopyrrolidin-2-yl)methyl)amino)methyl)pyridin-2-yl)-[1,1′-biphenyl]-3-yl)-4-oxo-4H-pyrido[1,2-a]pyrimidin-3-yl)methyl)-N-methylglycine] | 0.1
COc1nc(-c2cccc(-c3cccc(-c4ccn5ncc(CNC[C@@H]6CCC(=O)N6)c5n4)c3Cl)c2Cl)ccc1CNC[C@@H]1CCC(=O)N1 [Example 282, (S)-5-((((6-(2,2′-Dichloro-3′-(3-(((((S)-5-oxopyrrolidin-2-yl)-methyl)amino)-methyl)-pyrazolo[1,5-a]pyrimidin-5-yl)-[1,1′-biphenyl]-3-yl)-2-methoxypyridin-3-yl)methyl)-amino)methyl)-pyrrolidin-2-one] | 8.7
COc1nc(-c2cccc(-c3cccc(-c4cnc5c(CNC[C@@H]6CCC(=O)N6)c(C)nn5c4)c3Cl)c2Cl)ccc1CNC[C@@H]1CCC(=O)N1 [Example 420, (S)-5-((((6-(2,2′-Dichloro-3′-(2-methyl-3-(((((S)-5-oxopyrrolidin-2-yl)methyl)amino)methyl)pyrazolo[1,5-a]pyrimidin-6-yl)-[1,1′-biphenyl]-3-yl)-2-methoxypyridin-3-yl)methyl)amino)methyl)pyrrolidin-2-one] | 0.6
COc1nc(-c2cccc(-c3cccc(-c4ccn5c(=O)c(CN6CC[C@H](C(=O)O)C6)cnc5c4)c3Cl)c2Cl)ccc1CNC[C@@H]1CCC(=O)N1 [Example 94, (S)-1-((8-(2,2′-Dichloro-3′-(6-methoxy-5-(((((S)-5-oxopyrrolidin-2-yl)methyl)amino)methyl)pyridin-2-yl)-[1,1′-biphenyl]-3-yl)-4-oxo-4H-pyrido[1,2-a]pyrimidin-3-yl)methyl)pyrrolidine-3-carboxylic acid] | 0.3
COc1nc(-c2cccc(-c3cccc(-c4cnc5c(CNC[C@@H]6CCC(=O)N6)cn(C)c5c4)c3Cl)c2Cl)ccc1CNC[C@@H]1CCC(=O)N1 [Example 375, (S)-5-((((6-(2,2′-Dichloro-3′-(1-methyl-3-(((((S)-5-oxopyrrolidin-2-yl)methyl)amino)methyl)-1H-pyrrolo[3,2-b]pyridin-6-yl)-[1,1′-biphenyl]-3-yl)-2-methoxypyridin-3-yl)methyl)amino)methyl)pyrrolidin-2-one] | 180
COc1nc(-c2cccc(-c3cccc(-c4cc5c(=O)n(C)c(CNCCC(F)F)nn5c4)c3Cl)c2Cl)ccc1CNC[C@@H]1CCC(=O)N1 [compound 465, (S)-6-(2,2′-Dichloro-3′-(6-methoxy-5-((((5-oxopyrrolidin-2-yl)methyl)amino)methyl)pyridin-2-yl)-[1,1′-biphenyl]-3-yl)-2-(((3,3-difluoropropyl)amino)methyl)-3-methylpyrrolo[2,1-f][1,2,4]triazin-4(3H)-one] | 14
